According to paper PMC11247487, “Discovery of Dual MER/AXL Kinase Inhibitors as Bifunctional Small Molecules for Inhibiting Tumor Growth and Enhancing Tumor Immune Microenvironment” (Journal of Medicinal Chemistry, 2024):
Values joined by “and” are separate entries in the source; they are usually repeats but may differ in a detail not shown here. Equal entries are not always repeated. Where two headings read alike, the source gives them in different places.

How the values were obtained:
[1] = tested on: Ba/F3-MER cells; experiment: Cell viability assay (MTS); assay type: cell-based; details: 72 h
[2] = target: EGFR^WT (Homo sapiens, UniProt P00533); experiment: EGFR^WT in-house Kinase-Glo assay; assay type: biochemical; details: for inhibition at 1 µM: read-out: EGFR^WT inh. @ 1 μM
[3] = target: T1, MER (Homo sapiens, UniProt Q12866); experiment: MER enzyme inhibition assay (in-house Kinase-Glo); assay type: biochemical; details: for inhibition at 1 µM: read-out: MER inh. @ 1 μM
T1 construct: A purified kinase (MER or AXL) was incubated with a compound or DMSO
T1 sequence (Q12866 21-999): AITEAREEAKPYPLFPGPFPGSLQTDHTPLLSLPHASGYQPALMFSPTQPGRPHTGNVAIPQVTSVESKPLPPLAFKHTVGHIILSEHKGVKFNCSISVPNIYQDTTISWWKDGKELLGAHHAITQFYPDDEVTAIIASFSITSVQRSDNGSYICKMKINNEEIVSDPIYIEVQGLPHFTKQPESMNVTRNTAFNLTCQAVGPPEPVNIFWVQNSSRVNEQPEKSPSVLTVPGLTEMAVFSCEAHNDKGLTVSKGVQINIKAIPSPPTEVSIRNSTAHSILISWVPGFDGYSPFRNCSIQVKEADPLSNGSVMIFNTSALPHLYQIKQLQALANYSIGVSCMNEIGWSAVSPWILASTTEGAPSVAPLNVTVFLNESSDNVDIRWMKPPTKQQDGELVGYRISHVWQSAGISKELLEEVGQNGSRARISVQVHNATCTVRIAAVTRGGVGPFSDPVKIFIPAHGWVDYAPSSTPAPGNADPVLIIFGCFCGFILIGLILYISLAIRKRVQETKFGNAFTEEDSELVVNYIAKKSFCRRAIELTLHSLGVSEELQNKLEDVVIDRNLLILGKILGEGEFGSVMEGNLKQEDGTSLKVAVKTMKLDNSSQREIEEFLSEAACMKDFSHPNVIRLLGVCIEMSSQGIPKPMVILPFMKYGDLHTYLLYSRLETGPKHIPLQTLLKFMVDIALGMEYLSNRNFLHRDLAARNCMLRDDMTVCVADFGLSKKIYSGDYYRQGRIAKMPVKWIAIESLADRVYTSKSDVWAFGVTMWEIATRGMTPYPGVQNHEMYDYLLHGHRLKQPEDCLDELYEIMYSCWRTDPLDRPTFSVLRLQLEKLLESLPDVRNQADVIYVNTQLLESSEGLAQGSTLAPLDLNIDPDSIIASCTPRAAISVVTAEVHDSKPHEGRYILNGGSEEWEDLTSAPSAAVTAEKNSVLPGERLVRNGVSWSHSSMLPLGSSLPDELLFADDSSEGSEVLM

[4] = target: EGFR^DM (T790M/L858R) (Homo sapiens, UniProt P00533, L858R/T790M); experiment: EGFR^DM in-house Kinase-Glo assay; assay type: biochemical
[5] = target: T2, AXL (Homo sapiens, UniProt P30530); experiment: AXL enzyme inhibition assay (ADP-Glo); assay type: biochemical; details: for inhibition at 1 µM: read-out: AXL inh. @ 1 μM
T2 construct: A purified kinase (MER or AXL) was incubated with a compound or DMSO
T2 sequence (P30530 26-894): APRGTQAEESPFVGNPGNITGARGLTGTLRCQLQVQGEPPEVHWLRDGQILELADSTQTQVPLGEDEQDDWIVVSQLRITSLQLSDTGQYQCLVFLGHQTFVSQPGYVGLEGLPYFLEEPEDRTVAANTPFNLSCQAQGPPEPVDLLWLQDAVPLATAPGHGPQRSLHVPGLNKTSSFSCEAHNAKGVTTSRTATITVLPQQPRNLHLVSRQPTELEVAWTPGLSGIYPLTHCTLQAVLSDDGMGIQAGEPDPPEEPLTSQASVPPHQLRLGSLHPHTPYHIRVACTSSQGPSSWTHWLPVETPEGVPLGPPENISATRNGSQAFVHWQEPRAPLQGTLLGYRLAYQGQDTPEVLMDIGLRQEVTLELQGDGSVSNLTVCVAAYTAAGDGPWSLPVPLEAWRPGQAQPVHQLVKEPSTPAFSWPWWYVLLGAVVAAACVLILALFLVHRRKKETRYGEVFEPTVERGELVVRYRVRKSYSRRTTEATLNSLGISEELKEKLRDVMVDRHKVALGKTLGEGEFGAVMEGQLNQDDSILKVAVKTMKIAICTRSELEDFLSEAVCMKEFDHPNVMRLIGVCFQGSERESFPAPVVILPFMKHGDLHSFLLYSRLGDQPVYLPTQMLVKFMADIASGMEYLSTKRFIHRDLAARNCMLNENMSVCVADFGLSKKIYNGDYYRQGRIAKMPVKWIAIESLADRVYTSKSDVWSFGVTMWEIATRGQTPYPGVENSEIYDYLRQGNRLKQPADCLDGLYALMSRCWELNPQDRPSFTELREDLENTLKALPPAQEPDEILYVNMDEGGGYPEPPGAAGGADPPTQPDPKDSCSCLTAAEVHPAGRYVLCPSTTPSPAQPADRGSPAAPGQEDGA

[6] = In vivo pharmacokinetics study; details: mice; for clearance at 24 h: read-out: iv CL; for Vd at 24 h: read-out: iv Vss; for iv DNAUC(0–inf) / po DNAUC(0–inf) / po DNCmax: dose-normalized
Method: The animal studies were performed according to NHRI institutional animal care and committee-approved procedures. Male ICR mice (25–35 g) were obtained from BioLASCO (Taiwan Co., Ltd., Ilan, Taiwan). […] All samples were analyzed for the parent drug by LC-MS/MS. Plasma concentration data were analyzed with a noncompartmental method.

[7] = In vitro microsomal stability assay; assay type: in vitro ADME; details: 1 μM, mouse liver microsomes, percent remaining at 30 min
Method: All incubations were initiated with the addition of NADPH-generating system at 37 °C for 30 min. At 0 and the end of incubation, 100 μL of aliquots were taken from the incubation mixture and placed into centrifuge tubes containing 100 μL of ice-cold acetonitrile to terminate the metabolic reaction. The samples were vortexed and centrifuged, and then, the supernatant injected onto LC/MS. Percent of remaining of each compound was calculated by comparing peak areas at 30 min to that at the initiation of incubation.

[8] = male, ICR, mouse, plasma, iv 2 mg/kg
[9] = male, ICR, mouse, plasma, iv 2 mg/kg, read-out: iv T1/2 (converted)
[10] = male, ICR, mouse, plasma, iv 2 mg/kg, po 10 mg/kg
[11] = male, ICR, mouse, plasma, po 10 mg/kg

Nc1cccc(-c2c(-c3ccccc3)oc3ncnc(Oc4ccc(NC(=O)c5cccn(-c6ccc(F)cc6)c5=O)cc4)c23)c1 [Compound 17, N-(4-{[5-(3-Aminophenyl)-6-phenylfuro[5,4-d]pyrimidin-4-yl]oxy}phenyl)-1-(4-fluorophenyl)-2-oxo-1,2-dihydropyridine-3-carboxamide]
IC50 [1]: 8.4 nM and 8.2 nM
inhibition at 1 µM [2]: 1%
inhibition at 1 µM [3]: 70%
inhibition at 1 µM ([4]; read-out: EGFR^DM inh. @ 1 μM): -1%
inhibition at 1 µM [5]: 100%

N^1-(4-{[5-(3-Aminophenyl)-6-phenylfuro[2,3-d]pyrimidin-4-yl]oxy}phenyl)-N^1-(4-fluorophenyl)cyclopropane-1,1-dicarboxamide [Compound 12]
IC50 [1]: 73.6 nM
EGFR^WT inh. @ 1 μM [2]: 0%
MER inh. @ 1 μM [3]: 71%
EGFR^DM inh. @ 1 μM [4]: −9%
AXL inh. @ 1 μM [5]: 100%

CC(=O)Nc1cccc(-c2c(-c3cnn(C)c3)oc3ncnc(Oc4ccc(NC(=O)c5cccn(-c6ccc(F)cc6)c5=O)cc4)c23)c1 [Compound 28, N-[4-({5-[3-(Acetylamino)phenyl]-6-(1-methyl-1H-pyrazol-4-yl)furo[2,3-d]pyrimidin-4-yl}oxy)phenyl]-1-(4-fluorophenyl)-2-oxo-1,2-dihydropyridine-3-carboxamide]
IC50 [1]: 1 nM
clearance at 24 h [6, 8]: 20.5 mL/min/kg
half-life at 24 h [6, 9]: 12.7 h
Vd at 24 h [6, 8]: 10.5 L/kg
iv DNAUC(0–inf) ([6]; iv 2 mg/kg): 766.5 ng·h/mL
Microsomal stability @ 30 min [7]: 91%

N^1-(4-{[5-(3-Aminophenyl)-6-phenylfuro[2,3-d]pyrimidin-4-yl]amino}phenyl)-N^1-(4-fluorophenyl)cyclopropane-1,1-dicarboxamide [Compound 15]
IC50 [1]: 713 nM
EGFR^WT inh. @ 1 μM [2]: 1%
MER inh. @ 1 μM [3]: 19%
EGFR^DM inh. @ 1 μM [4]: −4%
AXL inh. @ 1 μM [5]: 92%

N^1-{4-[(5,6-Diphenylfuro[2,3-d]pyrimidin-4-yl)oxy]phenyl}-N^1-(4-fluorophenyl)cyclopropane-1,1-dicarboxamide [Compound 13]
IC50 [1]: 658 nM
EGFR^WT inh. @ 1 μM [2]: 3%
MER inh. @ 1 μM [3]: 41%
EGFR^DM inh. @ 1 μM [4]: 2%
AXL inh. @ 1 μM [5]: 98%

CN(C)Cc1ccc(-c2c(-c3cnn(C)c3)oc3ncnc(Oc4ccc(NC(=O)c5cccn(-c6ccc(F)cc6)c5=O)cc4)c23)cc1 [Compound 39, N-{4-[(5-{4-[(Dimethylamino)methyl]phenyl}-6-(1-methyl-1H-pyrazol-4-yl)furo[2,3-d]pyrimidin-4-yl)oxy]phenyl}-1-(4-fluorophenyl)-2-oxo-1,2-dihydropyridine-3-carboxamide]
bioavailability [6, 10]: > 20%
bioavailability at 24 h [6, 10]: 26.2%
clearance at 24 h [6, 8]: 84 mL/min/kg
half-life at 24 h [6, 9]: 11.2 h
Vd at 24 h [6, 8]: 8 L/kg
Tmax at 24 h [6, 11]: 2 h
half-life at 24 h ([6]; male, ICR, mouse, plasma, po 10 mg/kg, read-out: po T1/2 (converted)): 2.4 h
iv DNAUC(0–inf) ([6]; iv 2 mg/kg): 208.0 ng·h/mL
po DNAUC(0–inf) ([6]; po 10 mg/kg): 54.4 ng·h/mL
po DNCmax ([6]; po 10 mg/kg): 5.7 ng/mL
Microsomal stability @ 30 min [7]: 67%

Cn1cc(-c2oc3ncnc(Oc4ccc(NC(=O)c5cccn(-c6ccc(F)cc6)c5=O)cc4)c3c2-c2ccc(N3CCNCC3)cc2)cn1 [Compound 40, 1-(4-Fluorophenyl)-N-[4-({6-(1-methyl-1H-pyrazol-4-yl)-5-[4-(piperazin-1-yl)phenyl]furo[2,3-d]pyrimidin-4-yl}oxy)phenyl]-2-oxo-1,2-dihydropyridine-3-carboxamide]
IC50 [1]: 1.6 nM
IC50 [3]: 2 nM
IC50 [5]: 8 nM

CN1CCN(c2ccc(-c3c(-c4cnn(C)c4)oc4ncnc(Oc5ccc(NC(=O)c6cccn(-c7ccc(F)cc7)c6=O)cc5)c34)cc2)CC1 [Compound 41, 1-(4-Fluorophenyl)-N-[4-({5-[4-(4-methylpiperazin-1-yl)phenyl]-6-(1-methyl-1H-pyrazol-4-yl)furo[2,3-d]pyrimidin-4-yl}oxy)phenyl]-2-oxo-1,2-dihydropyridine-3-carboxamide]
IC50 [1]: 0.7 nM
IC50 [3]: 5.8 nM
IC50 [5]: 15.8 nM

(4-{[5-(3-Aminophenyl)-6-phenylfuro[5,4-d]pyrimidin-4-yl]oxy}phenyl)-N-(phenylacetyl)carbamothioic amide [Compound 16]
IC50 [1]: 1140 nM
EGFR^WT inh. @ 1 μM [2]: 1%
MER inh. @ 1 μM [3]: 9%
EGFR^DM inh. @ 1 μM [4]: −6%
AXL inh. @ 1 μM [5]: 95%

C=CC(=O)Nc1cccc(-c2c(-c3ccccc3)oc3ncnc(Oc4ccc(NC(=O)C5(C(=O)Nc6ccc(F)cc6)CC5)cc4)c23)c1 [Compound 11]
IC50 [1]: 618 nM
inhibition at 1 µM [2]: 40%
inhibition at 1 µM [3]: 14%
IC50 ([4]; cell marked b = IC50 value): 42 nM
inhibition at 1 µM [5]: 96%

CNc1cccc(-c2c(-c3cnn(C)c3)oc3ncnc(Oc4ccc(NC(=O)c5cccn(-c6ccc(F)cc6)c5=O)cc4)c23)c1 [Compound 29, 1-(4-Fluorophenyl)-N-[4-({5-[3-(methylamino)phenyl]-6-(1-methyl-1H-pyrazol-4-yl)furo[2,3-d]pyrimidin-4-yl}oxy)phenyl]-2-oxo-1,2-dihydropyridine-3-carboxamide]
IC50 [1]: 1.2 nM
bioavailability at 24 h [6, 10]: 0.5%
clearance at 24 h [6, 8]: 5.3 mL/min/kg
half-life at 24 h [6, 9]: 8.5 h
Vd at 24 h [6, 8]: 1.3 L/kg
Tmax at 24 h [6, 11]: 24 h
iv DNAUC(0–inf) ([6]; iv 2 mg/kg): 3,330.5 ng × hr/mL
po DNAUC(0–inf) ([6]; po 10 mg/kg): 15.3 ng·h/mL
po DNCmax ([6]; po 10 mg/kg): 1.4 ng/mL
Microsomal stability @ 30 min [7]: 100%

N^1-(4-Fluorophenyl)-N^1-{4-[(6-phenylfuro[2,3-d]pyrimidin-4-yl)oxy]phenyl}cyclopropane-1,1-dicarboxamide [Compound 14]
IC50 [1]: 3630 nM
EGFR^WT inh. @ 1 μM [2]: 4%
MER inh. @ 1 μM [3]: 4%
EGFR^DM inh. @ 1 μM [4]: 1%
AXL inh. @ 1 μM [5]: 53%
